# Results: US20210032374A1, “ISOLATED SAPOSHNIKOVIA DIVARICATA POLYSACCHARIDE AND USE THEREOF” (SHANGHAI GREEN VALLEY PHARMACEUTICAL CO., LTD., priority 2018, published 2021)
# What was measured:
# Assay type in all cases: in vivo, Kunming mice
# [1] = system: mice with diabetes mellitus induced by streptozotocin (STZ); assay: Fast blood glucose (FBG) in mice with STZ-induced diabetes mellitus; conditions: 25 mg/kg oral gavage daily, STZ diabetic mice, x ± S.D, n = 10
# Method: Experimental animals: healthy male Kunming mice of clean grade (weighed 18-22 g, provided by Shanghai SLAC Laboratory Animal Co., Ltd.). Experimental method: […] The diabetes mellitus model mice were randomly grouped into a model group (STZ 120 mg/kg), a low-dose Saposhnikovia divaricata polysaccharide group (SDP 50 mg/kg), a high-dose Saposhnikovia divaricata polysaccharide (SDP 200 mg/kg) group, and a positive drug (Glibenclamide, GLI 25 mg/kg) control group, 10 mice per group. For each dosing group, the mice were dosed by oral gavage at 0.2 ml/10 g body weight at 8:00 am every day. The normal control group and the model group were given an equal volume of distilled water. During the experiment, the mice in each group were allowed to access to water ad arbitrium. The FBG and body weight were measured every 10 days. 30 days after the dosing, the mice were treated, and the following indexes were measured.
# [2] = system: mice with diabetes mellitus induced by streptozotocin (STZ); assay: Glucose tolerance (i.p. glucose load) in mice with STZ-induced diabetes mellitus; conditions: 25 mg/kg, x ± S.D, n = 10
# Method: Experimental method: The mice were kept at a temperature of 20±2° C. and a humidity of 50±5% under 12 hours of light and 12 hours of darkness for 3 days, during which the mice were allowed to access to food and water ad arbitrium. 10 healthy mice were selected as the normal control group (Control). The remaining mice were intraperitoneally injected with a streptozotocin (STZ) solution at 0.2 ml/10 g body weight. 72 h later, the fast blood glucose (FBG) of the mice was measured. The mice having an FBG value higher than 11.1 mmol/L and lower than 25 mmol/L were selected as diabetes mellitus model mice. The diabetes mellitus model mice were randomly grouped into a model group (STZ 120 mg/kg), a low-dose Saposhnikovia divaricata polysaccharide group (SDP 50 mg/kg), a high-dose Saposhnikovia divaricata polysaccharide (SDP 200 mg/kg) group, and a positive drug (Glibenclamide, GLI 25 mg/kg) control group, 10 mice per group. For each dosing group, the mice were dosed by oral gavage at 0.2 ml/10 g body weight at 8:00 am every day. The normal control group and the model group were given an equal volume of distilled water. During the experiment, the mice in each group were allowed to access to water ad arbitrium. The FBG and body weight were measured every 10 days. 30 days after the dosing, the mice were treated, and the following indexes were measured.
# (1) Glucose tolerance: The mice were fasted at 8:00 the day before the end of the experiment. After 4 h, blood was collected from the orbit, and FBG was measured as the blood glucose level before administration of glucose (0 h). Then, all mice were intraperitoneally injected with a 10% glucose solution at 0.2 ml/10 g body weight. 0.5 hour (0.5 h) and 2 hours (2 h) after intraperitoneal injection of glucose, blood was collected from the orbit, and the blood glucose value was measured. The area under the blood glucose curve (AUC) was calculated according to the following equation: […]
# [3] = system: mice with hyperlipoidemia; assay: Liver TC and TG contents and liver weight coefficient in mice with hyperlipoidemia; conditions: positive drug 40 mg/kg
# Excerpt: A hyperlipoidemia model was established with reference to the methods as described in the references (Liyan Sun, Zhenliang Liu, Jinxia Sun, et al., Effect of Imperata cylindrica polysaccharide on hypoxia tolerance in mice, China Journal of Hospital Pharmacy, 2008, 28(2): 96-99; Bin Leng, Intervention of immunoregulation and renal fibrosis by Imperata cylindrica polysaccharide in rats with IgA nephropathy, Dissertations of Guilin Medical University, 2013; Shijing Lv, Qicai Long, Deyuan He, et al., Regulation of lymphocyte proliferation and T cell subpopulation by Imperata cylindrica polysaccharide in patients with hepatitis B, [Conference Paper] 2001—The Second National Academic Conference on Immunology of Traditional Chinese Medicine). Experimental method: The mice were kept at a temperature of 20±2° C. and a humidity of 50±5% under 12 hours of light and 12 hours of darkness for 3 days, during which the mice were allowed to access to food and water ad arbitrium. […] The serum TC, TG, LDL-C and HDL-C levels were measured. A part of the liver tissue of the mice was took, homogenized, and measured for liver TC and TG contents, as well as SOD and GSH-px activities and MDA content. […]
Structure (SMILES),FBG ([1]; Day 0),FBG ([1]; Day 10),FBG ([1]; Day 20),FBG ([1]; Day 30),"Blood glucose ([2]; 0 h (before glucose), after 30 days dosing)",Blood glucose ([2]; 0.5 h after i.p. glucose),Blood glucose ([2]; 2 h after i.p. glucose),Area under the curve (AUC) ([2]; blood glucose curve 0-2 h),liver weight coefficient [3],"liver TC content ([3]; vs high-fat model group, P<0.01)"
"COc1ccc(Cl)cc1C(=O)NCCc1ccc(S(=O)(=O)NC(=O)NC2CCCCC2)cc1 [GLI, glibenclamide]",12.58 ± 2.69 mmol/L,15.95 ± 1.57 mmol/L,18.56 ± 3.02 mmol/L,20.44 ± 2.25 mmol/L,20.44 ± 2.25 mmol/1,29.63 ± 2.24 mmol/1,27.60 ± 2.04 mmol/1,40.62 ± 2.86,–,–
"CC(C)OC(=O)C(C)(C)Oc1ccc(C(=O)c2ccc(Cl)cc2)cc1 [Lipanthyl, Fenofibrate]",–,–,–,–,–,–,–,–,significantly increased,significantly lower
